Test results reported in PubChem BioAssay (NCI).
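Briefly, cells in 96-well plates were exposed to five compound concentrations for 48 h, and endpoints were estimated by linear interpolation. Here, GI50 denotes the concentration required for 50% inhibition of growth. At the TGI there is no net growth.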

Key:
Assay in all cases: inhibition of tumour cell growth, NCI panel, 48 h
[1] = system: ACHN renal
[2] = system: SK-MEL-2 melanoma
[3] = system: 786-0 renal
[4] = system: UACC-62 melanoma
[5] = system: K-562 leukemia
[6] = system: UACC-257 melanoma
[7] = system: TK-10 renal
[8] = system: A498 renal
[9] = system: SK-OV-3 ovarian
[10] = system: MDA-N
[11] = system: HOP-92 NSCLC

Structure (SMILES)	TGI [1]	TGI [2]	TGI [3]	TGI [4]	TGI [5]	TGI [6]	TGI [7]	TGI [8]	TGI [9]	TGI [10]	TGI [11]	GI50 [1]	GI50 [2]	GI50 [11]	GI50 [8]	GI50 [9]	GI50 [4]	GI50 [6]	GI50 [7]
CC[n+]1[b-](C(C)(C)C)n(/N=C(\C)C(C)(C)C)[b-](C(C)(C)C)[n+]1CC	> 100 µM	> 100 µM	> 100 µM	> 100 µM	> 100 µM	> 100 µM	> 100 µM												
Cc1cc(S(=O)(=O)Nc2nc(N)n(C)n2)c(S)cc1Cl	> 10 µM	> 10 µM	> 10 µM	> 10 µM	> 10 µM	> 10 µM	> 10 µM	> 10 µM	> 10 µM	> 10 µM									
Cc1ccc(S(=O)(=O)C2=c3ncccc3=C3C(=O)c4ccccc4C(=O)C32)cc1 (stereo not given)	> 95.8 µM	> 100 µM	50.3 µM	69.7 µM	> 100 µM	> 100 µM	> 71.3 µM		> 100 µM	> 100 µM	> 89.5 µM								
Nc1ncnc2c1ncn2CC(OCP(=O)(O)O)Oc1ccccc1 (stereo not given)	> 100 µM	> 100 µM	> 100 µM	> 100 µM	> 100 µM	> 100 µM	> 100 µM	> 100 µM	> 100 µM	> 100 µM	> 100 µM								
COC(CNC(=O)C(C)NC(=O)C(C)NC(=O)c1ccccc1)OC (stereo not given)	> 100 µM	> 100 µM	> 100 µM	> 100 µM	> 100 µM	> 100 µM	> 100 µM		> 100 µM	> 100 µM	> 100 µM								
CC(C)(C)OC(=O)C(C1NC(C(=O)O)C(C)(C)S1)N1C(=O)c2ccccc2C1=O (stereo not given)	> 100 µM	> 100 µM	> 100 µM	> 100 µM	> 100 µM	> 100 µM	> 100 µM	> 100 µM	> 100 µM	> 100 µM	> 100 µM								
Cc1sc(N=Nc2c(O)[nH]c3ccccc23)nc1-c1ccccc1	31.1 µM	49.5 µM	36.6 µM	34.3 µM		47.8 µM	59.2 µM	32.3 µM	33.6 µM	76.4 µM	45.2 µM								
C[n+]1c2ccccc2c(NC(CCC(N)=O)C(=O)O)c2ccccc21 (stereo not given)	> 100 µM	> 100 µM	> 100 µM	> 100 µM	> 100 µM	> 100 µM	> 100 µM	> 100 µM	> 100 µM		> 100 µM								
CCCCCCCCCCCCCCCCCC(=O)NCCCNCCCNC(=O)CCCCCCCCCCCCCCCCC	> 100 µM		> 100 µM	> 100 µM	> 100 µM	> 100 µM	> 100 µM	> 100 µM	> 100 µM		> 100 µM								
Cc1ccc(N2C(=O)/C(=c3\s/c(=C(/N)O)c(=N)n3-c3ccccc3)SC2=S)cc1	> 100 µM			> 100 µM	> 100 µM	> 100 µM	> 100 µM	> 100 µM	> 100 µM		47.1 µM								
Cn1ncc2c(NCCc3ccccc3)nc(Cl)nc21	> 100 µM	36.7 µM	64.2 µM	45.1 µM	> 100 µM	12.3 µM	65 µM	45.5 µM	71.7 µM	56.5 µM	58.4 µM								
C=CCC1(O)c2cccc(O)c2C(=O)c2c(O)cccc21	> 100 µM	51.2 µM	> 100 µM		> 100 µM	68.3 µM	> 100 µM	79.4 µM		45 µM	88.9 µM								
O=C(c1nsc(Cl)c1Cl)N1CCCCC1			> 100 µM	> 100 µM	> 100 µM	> 100 µM	> 100 µM		> 100 µM	> 100 µM									
Cc1cccc(C)c1NC(=S)/N=C/C1=C(O)c2ccccc2C1=O	> 100 µM	> 83.3 µM	> 100 µM	> 70.8 µM	> 100 µM	> 88.5 µM	> 81.2 µM		> 29.3 µM	> 95.5 µM	> 65.8 µM								
CC(C)CCNC(=O)c1ccc(CNC(=O)/C=C/c2ccc(-c3ccccc3[N+](=O)[O-])o2)cc1	> 100 µM	> 100 µM	> 100 µM	> 100 µM	> 100 µM	> 100 µM			> 100 µM	> 100 µM									
O=[N+]([O-])c1cc(Cl)ccc1S(=O)(=O)c1ccccc1	> 100 µM	53.8 µM	> 100 µM	> 100 µM	> 100 µM	> 100 µM	> 100 µM	> 100 µM	> 100 µM		> 100 µM								
CNC(Cc1ccccc1)c1cccc(OC)c1O (stereo not given)	> 100 µM	> 100 µM	> 100 µM	> 100 µM	> 100 µM	53.9 µM	> 100 µM	> 100 µM		> 100 µM	> 100 µM								
CCOc1ccc(N=Cc2cc(OC)c(OC)c(OC)c2)cc1	> 100 µM	> 100 µM	> 100 µM	> 100 µM	> 100 µM	> 100 µM	> 100 µM	> 100 µM	> 100 µM		> 100 µM								
OC[C@H]1CC(c2nn[nH]n2)[C@H](O)[C@@H]1O (stereo not given in full)	> 100 µM		> 100 µM		> 100 µM		> 100 µM	> 100 µM	> 100 µM	> 100 µM	> 100 µM								
CC(=O)Oc1ccc(-c2cc3ccccc3oc2=O)cc1OC(C)=O	> 100 µM	> 100 µM	> 100 µM		> 100 µM	> 100 µM	> 100 µM	> 100 µM		> 100 µM									
CC1=NN(C(=O)c2ccc(Cl)cc2)C(=O)/C1=C/c1cccc(O)c1	> 100 µM	> 100 µM	> 100 µM	> 100 µM	> 100 µM	> 100 µM	> 100 µM	> 100 µM	> 100 µM		> 100 µM								
CNC(=O)N(CCC#N)CCN(CCN(C(=O)NC)c1ccccc1)C(=O)NC	> 100 µM	> 100 µM	> 100 µM	> 100 µM	> 100 µM	> 100 µM	> 100 µM		> 100 µM	> 100 µM	> 100 µM								
Nc1nc(Cl)c2ncn(Cc3ccccc3CCl)c2n1	22 µM	80.6 µM	52 µM	4.33 µM	> 100 µM	38.2 µM	36.7 µM	44.3 µM	52.1 µM		31.1 µM								

Structure (SMILES)	TGI [1]	TGI [2]	TGI [3]	TGI [4]	TGI [5]	TGI [6]	TGI [7]	TGI [8]	TGI [9]	TGI [10]	TGI [11]	GI50 [1]	GI50 [2]	GI50 [11]	GI50 [8]	GI50 [9]	GI50 [4]	GI50 [6]	GI50 [7]
Cc1c2n(c3ccccc13)CC1C2N(C)OC1(C)C (stereo not given)	> 100 µM	> 100 µM	> 100 µM	> 100 µM	> 100 µM	> 100 µM			> 100 µM										
C=CCCCC1(C)CCCCNC1=O (stereo not given)	> 10 µM	> 10 µM	> 10 µM	> 10 µM	> 10 µM	> 10 µM	> 10 µM	> 10 µM	> 10 µM	> 10 µM									
CCNC1CC(C(C)(C)NCC)CC=C1C (stereo not given)			> 100 µM	> 100 µM	> 100 µM	> 100 µM	> 100 µM		> 100 µM	> 100 µM	> 100 µM								
CCCCCCCCCCCCCCCCCCNc1ccn(C2OC(CO)C(OP(=O)(O)OCC3CCC(n4ccc(N)nc4=O)O3)C2O)c(=O)n1 (stereo not given)	> 100 µM	> 100 µM	> 100 µM	> 100 µM		> 100 µM	> 100 µM		> 100 µM	> 100 µM	> 100 µM								
CC(C)(C)C1CCC2c3c([nH]c4ccccc34)C3C(=O)N(c4ccc(Br)cc4)C(=O)C3C2C1 (stereo not given)	35.7 µM	54.6 µM	37.3 µM	> 100 µM	43.5 µM	50.2 µM	42 µM	52.3 µM			49 µM								
CCC12C=CCN3CC[C@]4(C(=C(C(=O)OC)[C@@H]1Nc1ccn(C5OC(COC(C)=O)C(OC(C)=O)C5OC(C)=O)c(=O)n1)Nc1ccccc14)C32 (stereo not given in full)	8 µM	5.58 µM	8.9 µM	6.94 µM	17.1 µM	3.62 µM	10.1 µM	10.7 µM	9.45 µM		8.02 µM								
COc1cc2c[n+](C)c3c4ccccc4ccc3c2cc1OC	> 100 µM	34.2 µM	60.4 µM	18 µM	21.2 µM	21 µM	> 100 µM	> 65.2 µM	32.5 µM	> 36.7 µM									
Clc1ccc2c(NCCNc3nc(-c4ccccc4)cc(-c4ccccc4)n3)ccnc2c1	3.1 µM	3.62 µM		3.37 µM		3.98 µM	3.41 µM	5.61 µM	3.33 µM		3.14 µM	1.7 µM	1.84 µM	1.61 µM	2.15 µM	1.75 µM	1.85 µM	2.03 µM	1.86 µM
COc1cc(Cn2c3c(c4cc(O)ccc42)C(=O)c2ccccc2C3=O)cc(OC)c1	7.61 µM	> 100 µM	10.2 µM	7.64 µM		> 100 µM	34.9 µM	38.6 µM	6.68 µM	> 100 µM	19.7 µM								
COc1cccc(/C=N/n2c(-c3ccccc3)n[nH]c2=O)c1	> 100 µM	> 100 µM	> 100 µM	> 100 µM	> 100 µM	> 100 µM		> 100 µM	> 100 µM	> 100 µM									
Cn1cc(-c2ccc(CCOC3CCCCO3)cc2)c2c(C#N)cccc21 (stereo not given)		> 100 µM	> 100 µM	> 100 µM	> 100 µM	> 100 µM	> 100 µM	> 100 µM	> 100 µM	> 100 µM	> 100 µM								
CC(=O)CN=C(C)NNc1ccc([N+](=O)[O-])cc1[N+](=O)[O-]	> 100 µM	> 100 µM	> 100 µM	> 100 µM	> 100 µM			> 100 µM	> 100 µM	> 100 µM									
Cc1[nH]n(-c2ccccc2)c(=S)c1C(=O)c1ccccc1	> 100 µM	> 100 µM		> 100 µM	> 100 µM	> 100 µM	94.4 µM	44.9 µM	> 100 µM										
COC(=O)[C@]1(c2cc3ccccc3n2S(=O)(=O)c2ccccc2)CC2CCC1NC2 (stereo not given in full)	51.3 µM	31.7 µM	27.3 µM	29.5 µM	24.4 µM	32 µM	> 100 µM		32.8 µM	27.8 µM	24.4 µM								
COc1ccc(C2=C(OC(C)=O)c3cccn3-c3ccccc3S2)cc1			> 10 µM	> 10 µM		> 10 µM	> 10 µM		> 10 µM	1.44 µM	> 10 µM								
Nc1nc(=O)n(C2OC(CO)C(O)C2O)cc1F (stereo not given)		> 100 µM		5.3 µM	> 100 µM	> 100 µM		> 100 µM	> 100 µM		5.9 µM								
CC(O[Si](C)(C)C(C)(C)C)[C@H](NC(=O)OCC(Cl)(Cl)Cl)C(=O)O (stereo not given in full)	> 100 µM		> 100 µM	> 100 µM	> 100 µM	> 100 µM	> 100 µM	> 100 µM	> 100 µM										
Cc1ccc2c(c1)NC(=O)C(N=[N+]=[N-])(c1ccccc1)C2=O (stereo not given)	> 100 µM	36.2 µM	> 100 µM	61.3 µM	56.6 µM	79.7 µM	> 100 µM	> 100 µM	84.3 µM		85.2 µM								
CC(C)NC(C)Cc1ccccc1 (stereo not given)	> 100 µM	> 100 µM	> 100 µM	> 100 µM	> 100 µM	> 100 µM	> 100 µM	> 100 µM	> 100 µM		> 100 µM								
CCC(C)(C)NC1=C(NC(C)=O)C(=O)c2ccccc2C1=O	43.2 µM	58.2 µM	> 75 µM	> 75 µM	53.4 µM	70.7 µM	> 75 µM		> 75 µM										
CC1=CCC2(C#N)CCC1C2=O (stereo not given)	> 100 µM	> 100 µM	> 100 µM	> 100 µM	> 100 µM	> 100 µM	> 100 µM	> 100 µM	> 100 µM										
COC(=O)c1ccccc1CC1Cc2cc3c(cc2C1)CCC3	> 100 µM	43.9 µM	> 100 µM		61.1 µM	73.1 µM	> 100 µM	> 100 µM	> 100 µM	> 100 µM	71.2 µM								
